From patent US4925834A, “3-methylene-4-androsten-17-ones, process for their production and pharmaceutical preparations containing them” (Schering Aktiengesellschaft, priority 1987, dated 1990)

System: aromatase
Test: PMSG test in infantile female rats, orally (serum estradiol)
Assay type: in vivo, rat
Conditions: for Concentration in serum estradiol / % inhibition (against the PMSG control): 10 mg/animal, 2 × p.o., PMSG-treated infantile female rats; for Concentration in serum estradiol: mean with standard deviation, groups of 10; for % inhibition (against the PMSG control): serum estradiol; for effectiveness in oral application: 2×10 mg, PMSG test, in words
Protocol: The aromatase activity can be measured by the influence of the estrogen formation stimulated by PMSG. [J. Steroid. Biochem., 7 (1976) 787] Anit-tumor activity in humans of compounds which have a positive effect in the PMSG test is described in The Lancet, 1 Dec. 1984, ppg. 1237-1239.
In the so-called PMSG test 21-day-old female rats are pretreated subcutaneously every other day for a total of 7 times with 100 IU of PMSG each time. 1 hour before and 8 hours after the last PMSG application (d12) the animals receive the test substance by oral dose. They are killed 24 hours after the last PMSG application. The estradiol is examined radioimmunologically in the serum. The average value of the estradiol concentration in nmol/l with standard deviation is calculated for each group of 10 animals. The significance of the differences from the control group are examined by analysis of variance.
The percentage inhibition is calculated against the PMSG control.

Row | SMILES | Concentration in serum estradiol [nmol/L] | % inhibition (against the PMSG control) [%] | effectiveness in oral application
1 | C[C@]12CCC(=O)C(O)=C1CC[C@@H]1[C@@H]2CC[C@]2(C)C(=O)CC[C@@H]12 [A, 4-hydroxy-4-androstene-3,17-dione] | 6.08 ± 0.56 | 0 | no effectiveness
2 | CSC[C@]12CCC(=CF)C=C1CC[C@@H]1[C@@H]2CC[C@]2(C)C(=O)CC[C@@H]12 [C, 3-fluoromethylene-19-methylthio-4-androsten-17-one] | 3.24 ± 0.81 | 45 | markd inhibition effectiveness
3 | C=C1C=C2CC[C@@H]3[C@H](CC[C@]4(C)C(=O)CC[C@@H]34)[C@@]2(C)CC1 (stereo in doubt) [B, 3-methylene-4-androsten-17-one] | 6.20 ± 0.80 | 0 | no effectiveness
